Assay: Tested for activity against 5-hydroxytryptamine 1A receptor from bovine hippocampus

Structure (SMILES)	Ki
COc1cccc2c1C[C@H]1CCN(Cc3ccccc3)[C@H]1C2 [1-Benzyl-5-methoxy-2,3,3a,4,9,9a-hexahydro-1H-benzo[f]indole]	1 µM
COc1cccc2c1CC[C@@H]1[C@H]2CCN1CC1CC1 [(3aR,9bS)-3-Cyclopropylmethyl-6-methoxy-2,3,3a,4,5,9b-hexahydro-1H-benzo[e]indole]	1 µM
COc1cccc2c1C[C@H]1CCN[C@H]1C2 [5-Methoxy-2,3,3a,4,9,9a-hexahydro-1H-benzo[f]indole]	1 µM
CCCN1[C@H](C)C[C@H]2c3c(O)cccc3CC[C@H]21 [(2R,3aR,9bS)-2-Methyl-3-propyl-2,3,3a,4,5,9b-hexahydro-1H-benzo[e]indol-9-ol]	0.016 µM
CCCN1CC[C@H]2c3c(cccc3OC)CC[C@@H]21 [(3aS,9bS)-9-Methoxy-3-propyl-2,3,3a,4,5,9b-hexahydro-1H-benzo[e]indole]	0.0002 µM
